Measured values from the CheMixHub viscosity set.

Experiment: xn = mol fraction of the nth substance listed

BrCCBr + Cc1ccccc1C
101.33 kPa
Conditions | viscosity [mPa·s]
298.15 K, x1 = 0.1292 | 0.7932
298.15 K, x1 = 0.261 | 0.8771
298.15 K, x1 = 0.3856 | 0.9602
298.15 K, x1 = 0.4919 | 1.032
298.15 K, x1 = 0.585 | 1.098
298.15 K, x1 = 0.6529 | 1.182
298.15 K, x1 = 0.7597 | 1.263
298.15 K, x1 = 0.8472 | 1.374
298.15 K, x1 = 0.9267 | 1.487
308.15 K, x1 = 0.1371 | 0.5822
308.15 K, x1 = 0.2566 | 0.6257
308.15 K, x1 = 0.3821 | 0.6992
308.15 K, x1 = 0.4845 | 0.7526
308.15 K, x1 = 0.5874 | 0.8292
308.15 K, x1 = 0.6798 | 0.9216
308.15 K, x1 = 0.7647 | 1.018
308.15 K, x1 = 0.8499 | 1.154
308.15 K, x1 = 0.9228 | 1.273

Brc1ccccc1 + Cc1ccccc1C
101 kPa
Conditions | viscosity [mPa·s]
293.15 K, x1 = 0.114 | 0.795
293.15 K, x1 = 0.2198 | 0.827
293.15 K, x1 = 0.3257 | 0.862
293.15 K, x1 = 0.4383 | 0.893
293.15 K, x1 = 0.542 | 0.931
293.15 K, x1 = 0.6615 | 0.962
293.15 K, x1 = 0.7764 | 1
293.15 K, x1 = 0.882 | 1.035
298.15 K, x1 = 0.1101 | 0.728
298.15 K, x1 = 0.2223 | 0.765
298.15 K, x1 = 0.3227 | 0.795
298.15 K, x1 = 0.4226 | 0.826
298.15 K, x1 = 0.5207 | 0.863
298.15 K, x1 = 0.6643 | 0.9
298.15 K, x1 = 0.772 | 0.938
298.15 K, x1 = 0.8925 | 0.969
303.15 K, x1 = 0.117 | 0.667
303.15 K, x1 = 0.2219 | 0.701
303.15 K, x1 = 0.3366 | 0.734
303.15 K, x1 = 0.4539 | 0.77
303.15 K, x1 = 0.5398 | 0.8
303.15 K, x1 = 0.6572 | 0.834
303.15 K, x1 = 0.7877 | 0.876
303.15 K, x1 = 0.9122 | 0.91

COc1ccccc1O + Cc1ccccc1N
303.15 K, 101 kPa
Conditions | viscosity [mPa·s]
x2 = 0.1 | 4.73
x2 = 0.2 | 4.93
x2 = 0.3 | 5.2
x2 = 0.34 | 5.22
x2 = 0.36 | 5.19
x2 = 0.4 | 5.17
x2 = 0.5 | 5.12
x2 = 0.6 | 4.82
x2 = 0.7 | 4.38
x2 = 0.8 | 4
x2 = 0.9 | 3.58

Brc1ccccc1 + ClC(Cl)(Cl)Cl
Conditions | viscosity [mPa·s]
298 K, 101.3 kPa, x2 = 0.1709 | 1.035
298 K, 101.3 kPa, x2 = 0.3202 | 1.011
298 K, 101.3 kPa, x2 = 0.5187 | 0.971
298 K, 101.3 kPa, x2 = 0.6674 | 0.942
298 K, 101.3 kPa, x2 = 0.8522 | 0.915
303.15 K, 101 kPa, x1 = 0.092 | 0.727
303.15 K, 101 kPa, x1 = 0.187 | 0.653
303.15 K, 101 kPa, x1 = 0.283 | 0.624
303.15 K, 101 kPa, x1 = 0.38 | 0.595
303.15 K, 101 kPa, x1 = 0.479 | 0.619
303.15 K, 101 kPa, x1 = 0.58 | 0.656
303.15 K, 101 kPa, x1 = 0.682 | 0.7
303.15 K, 101 kPa, x1 = 0.787 | 0.778
303.15 K, 101 kPa, x1 = 0.892 | 0.881
318 K, 101.3 kPa, x2 = 0.1581 | 0.8313
318 K, 101.3 kPa, x2 = 0.3169 | 0.8147
318 K, 101.3 kPa, x2 = 0.5212 | 0.7898
318 K, 101.3 kPa, x2 = 0.6657 | 0.7758
318 K, 101.3 kPa, x2 = 0.8618 | 0.76

COC(=O)CC(=O)OC + ClC(Cl)(Cl)Cl
303.15 K, 101 kPa
Conditions | viscosity [mPa·s]
x1 = 0.0856 | 0.9503
x1 = 0.1747 | 1.064
x1 = 0.2659 | 1.186
x1 = 0.3608 | 1.295
x1 = 0.4586 | 1.409
x1 = 0.5599 | 1.52
x1 = 0.6641 | 1.601
x1 = 0.7723 | 1.687
x1 = 0.8841 | 1.753

Brc1ccccc1 + ClC(Cl)=C(Cl)Cl
303.15 K, 101 kPa
Conditions | viscosity [mPa·s]
x2 = 0.1026 | 0.978
x2 = 0.1749 | 0.971
x2 = 0.2799 | 0.96
x2 = 0.3996 | 0.945
x2 = 0.4574 | 0.933
x2 = 0.5408 | 0.916
x2 = 0.6276 | 0.894
x2 = 0.7273 | 0.871
x2 = 0.8585 | 0.84
x2 = 0.9426 | 0.822

COC(=O)CC(=O)OC + ClC(Cl)Cl
303.15 K, 101 kPa
Conditions | viscosity [mPa·s]
x1 = 0.0727 | 0.612
x1 = 0.1507 | 0.727
x1 = 0.2329 | 0.845
x1 = 0.3213 | 0.968
x1 = 0.415 | 1.092
x1 = 0.5154 | 1.222
x1 = 0.6231 | 1.354
x1 = 0.7393 | 1.492
x1 = 0.8644 | 1.64

BrCCBr + ClCCCl
298.15 K, 101 kPa
Conditions | viscosity [mPa·s]
x2 = 0.175 | 1.421
x2 = 0.3753 | 1.216
x2 = 0.5066 | 1.117
x2 = 0.6547 | 1.006
x2 = 0.7793 | 0.9179
x2 = 0.8501 | 0.8648

Brc1ccccc1 + Clc1ccccc1
298.15 K, 101 kPa
Conditions | viscosity [mPa·s]
x2 = 0.299 | 0.934
x2 = 0.512 | 0.86
x2 = 0.676 | 0.823
x2 = 0.828 | 0.774

CC(F)(F)Cl + FC(F)Cl
Conditions | viscosity [mPa·s]
293.15 K, 101 kPa, x2 = 0.115 | 0.2343
293.15 K, 101 kPa, x2 = 0.331 | 0.2197
293.15 K, 101 kPa, x2 = 0.54 | 0.2009
293.15 K, 101 kPa, x2 = 0.635 | 0.2028
293.15 K, 101 kPa, x2 = 0.913 | 0.177
293.25 K, 101 kPa, x2 = 0.438 | 0.2153
293.35 K, 101 kPa, x2 = 0.822 | 0.189
293.73 K, 101.13 kPa, x2 = 0.526 | 0.195
312.35 K, 101 kPa, x2 = 0.731 | 0.1511
312.55 K, 101 kPa, x2 = 0.115 | 0.1951
312.75 K, 101 kPa, x2 = 0.913 | 0.1394
312.85 K, 101 kPa, x2 = 0.635 | 0.1609
312.95 K, 101 kPa, x2 = 0.331 | 0.1754
312.95 K, 101 kPa, x2 = 0.54 | 0.1615
313.15 K, 101 kPa, x2 = 0.822 | 0.1495
313.25 K, 101 kPa, x2 = 0.438 | 0.1749
